Results published in article PMC7807415 (Toxicology letters, 2020).
Values joined by “and” are separate entries in the source; they are usually repeats but may differ in a detail not shown here. Identical values can stand only once. Blank lines part the entries; values can stand above or below the molecule they belong to.

Legend:
[1] = test system: P450 activity in human liver microsomes (HLM150); assay: Inhibitor phenotyping of bioactivation in human liver microsomes; assay type: in vitro ADME
[2] = FAERS search for hepatobiliary disorder cases involving meloxicam; design: species or system human
[3] = BJC HealthCare electronic health record cohort: DILI hospitalizations; design: species or system human; conditions: of 2800 DILI hospitalizations; 4570 hospitalizations prescribed meloxicam
[4] = patients; ref Gschwend et al., 2007; cited from earlier work
CYP1A2 = biological target: T1, CYP1A2 (Homo sapiens, UniProt P05177); conditions: pH 7.4
T1 sequence (P05177 1-516): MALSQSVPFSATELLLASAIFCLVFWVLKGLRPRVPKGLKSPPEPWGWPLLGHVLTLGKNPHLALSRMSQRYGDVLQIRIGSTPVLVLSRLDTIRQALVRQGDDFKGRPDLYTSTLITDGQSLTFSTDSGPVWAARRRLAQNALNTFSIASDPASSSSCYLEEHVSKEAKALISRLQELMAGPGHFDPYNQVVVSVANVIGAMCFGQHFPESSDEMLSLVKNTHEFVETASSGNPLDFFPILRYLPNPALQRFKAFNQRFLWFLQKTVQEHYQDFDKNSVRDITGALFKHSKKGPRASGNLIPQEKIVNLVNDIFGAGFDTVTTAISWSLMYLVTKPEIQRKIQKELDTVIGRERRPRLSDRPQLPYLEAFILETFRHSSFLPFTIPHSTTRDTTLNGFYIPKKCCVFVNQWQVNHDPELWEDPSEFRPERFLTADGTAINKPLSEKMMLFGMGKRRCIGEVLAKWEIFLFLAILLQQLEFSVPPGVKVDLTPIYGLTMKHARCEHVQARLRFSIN

CYP2C19 = CYP2C19 (Homo sapiens, UniProt P33261); conditions: 400 µM sudoxicam, 100 nM CYP2C19, 30 min
CYP3A4 = CYP3A4 (Homo sapiens, UniProt P08684); conditions: 400 µM sudoxicam, 100 nM CYP3A4, 30 min
Chain of CYP3A4 (P08684 whole entry): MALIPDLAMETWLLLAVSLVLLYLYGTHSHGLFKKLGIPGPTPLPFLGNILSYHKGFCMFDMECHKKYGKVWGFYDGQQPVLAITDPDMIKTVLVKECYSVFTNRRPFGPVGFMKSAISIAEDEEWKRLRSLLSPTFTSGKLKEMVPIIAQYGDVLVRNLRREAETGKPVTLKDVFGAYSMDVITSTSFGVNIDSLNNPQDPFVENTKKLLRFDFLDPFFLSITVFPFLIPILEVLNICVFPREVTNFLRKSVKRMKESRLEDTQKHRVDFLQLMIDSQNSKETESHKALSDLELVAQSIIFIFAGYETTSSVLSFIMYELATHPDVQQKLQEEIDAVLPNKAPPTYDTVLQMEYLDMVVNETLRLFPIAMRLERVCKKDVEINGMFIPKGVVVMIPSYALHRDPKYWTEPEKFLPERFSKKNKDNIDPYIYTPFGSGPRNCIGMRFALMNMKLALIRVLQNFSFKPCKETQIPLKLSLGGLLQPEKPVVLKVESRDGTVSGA

[5] = substrate: Cc1cnc(NC(=O)C2=C(O)c3ccccc3S(=O)(=O)N2C)s1; assay: cells, lysate or membranes named; conditions: other: meloxicam -> methylglyoxal (bioactivation), recombinant CYP 1A2; pH 7.4
[6] = substrate: CN1C(C(=O)Nc2nccs2)=C(O)c2ccccc2S1(=O)=O; assay: cells, lysate or membranes named; conditions: other: sudoxicam -> glyoxal (bioactivation), pH 7.4

- blocked methylglyoxal formation (meloxicam bioactivation) ([1]; 1 mM ABT, 10 µM meloxicam, HLM150 0.5 mg/mL, 40 min): 85%
Molecule: Nn1nnc2ccccc21 [ABT, 1-aminobenzotriazole]

Molecule: O=c1cc(-c2ccccc2)oc2c1ccc1ccccc12 [ANF, α-naphthoflavone]
- effect on glyoxal formation (sudoxicam bioactivation) ([1]; 16 µM ANF (CYP1A2 inhibitor), 10 µM sudoxicam, HLM150): increased significantly the extent of the reaction

- share of total applicable hepatobiliary cases with concomitant drug ([2]; human): 6%
Molecule: Cc1c(OCC(F)(F)F)ccnc1C[S+]([O-])c1nc2ccccc2[nH]1 (stereo not drawn) [lansoprazole]

Molecule: Cc1cnc(NC(=O)C2=C(O)c3ccccc3S(=O)(=O)N2C)s1 [meloxicam]
- DILI hospitalizations that had been prescribed meloxicam [3]: 8 hospitalizations
- hepatobiliary disorder cases resulting in death ([2]; FAERS, 1998 to 2020): 39 cases
- serious cases of hepatobiliary disorders ([2]; human): 308 cases
- total cases of hepatobiliary disorders ([2]; human): 326 cases
- maximum plasma levels [4]: 3.2 µM
- Scaled contribution of CYP1A2 (Vmax/Km) (CYP1A2): 0.457 pmol/min/mg protein/µM substrate
- Vmax (CYP1A2): 1000 ± 53 pmol/min/nmol protein
- methylglyoxal formation in recombinant P450 screen (CYP1A2; recombinant enzyme, 30 min, 400 µM): only recombinant P450 to form detectable levels of methylglyoxal
- Percent contribution of CYP1A2 (CYP1A2; recombinant enzyme): 100%

- share of total applicable hepatobiliary cases with concomitant drug ([2]; human): 6%
Molecule: COc1ccc2[nH]c([S+]([O-])Cc3ncc(C)c(OC)c3C)nc2c1 (stereo not drawn) [omeprazole]

Molecule: CN1C(C(=O)Nc2nccs2)=C(O)c2ccccc2S1(=O)=O [sudoxicam, N-(2-thiazolyl)-4-hydroxy-2-methyl-2H-1,2-benzothiazine-3-carboxamide 1,1-dioxide]
- glyoxal formation in recombinant P450 screen (CYP2C19): capable of catalyzing the reaction
- glyoxal formation in recombinant P450 screen (CYP3A4): capable of catalyzing the reaction

B1: CYP1A2 (Homo sapiens) (protein)
chain: MALSQSVPFSATELLLASAIFCLVFWVLKGLRPRVPKGLKSPPEPWGWPLLGHVLTLGKNPHLALSRMSQRYGDVLQIRIGSTPVLVLSRLDTIRQALVRQGDDFKGRPDLYTSTLITDGQSLTFSTDSGPVWAARRRLAQNALNTFSIASDPASSSSCYLEEHVSKEAKALISRLQELMAGPGHFDPYNQVVVSVANVIGAMCFGQHFPESSDEMLSLVKNTHEFVETASSGNPLDFFPILRYLPNPALQRFKAFNQRFLWFLQKTVQEHYQDFDKNSVRDITGALFKHSKKGPRASGNLIPQEKIVNLVNDIFGAGFDTVTTAISWSLMYLVTKPEIQRKIQKELDTVIGRERRPRLSDRPQLPYLEAFILETFRHSSFLPFTIPHSTTRDTTLNGFYIPKKCCVFVNQWQVNHDPELWEDPSEFRPERFLTADGTAINKPLSEKMMLFGMGKRRCIGEVLAKWEIFLFLAILLQQLEFSVPPGVKVDLTPIYGLTMKHARCEHVQARLRFSIN
- Km [5]: 40 ± 7.5 µM

B2: CYP2C8 (Homo sapiens) (protein)
chain: MEPFVVLVLCLSFMLLFSLWRQSCRRRKLPPGPTPLPIIGNMLQIDVKDICKSFTNFSKVYGPVFTVYFGMNPIVVFHGYEAVKEALIDNGEEFSGRGNSPISQRITKGLGIISSNGKRWKEIRRFSLTTLRNFGMGKRSIEDRVQEEAHCLVEELRKTKASPCDPTFILGCAPCNVICSVVFQKRFDYKDQNFLTLMKRFNENFRILNSPWIQVCNNFPLLIDCFPGTHNKVLKNVALTRSYIREKVKEHQASLDVNNPRDFIDCFLIKMEQEKDNQKSEFNIENLVGTVADLFVAGTETTSTTLRYGLLLLLKHPEVTAKVQEEIDHVIGRHRSPCMQDRSHMPYTDAVVHEIQRYSDLVPTGVPHAVTTDTKFRNYLIPKGTTIMALLTSVLHDDKEFPNPNIFDPGHFLDKNGNFKKSDYFMPFSAGKRICAGEGLARMELFLFLTTILQNFNLKSVDDLKNLNTTAVTKGIVSLPPSYQICFIPV
- Km ([6]; recombinant CYP 2C8): 5 µM and 4.6 ± 0.89 µM

B3: CYP2C19 (Homo sapiens) (protein)
chain: MDPFVVLVLCLSCLLLLSIWRQSSGRGKLPPGPTPLPVIGNILQIDIKDVSKSLTNLSKIYGPVFTLYFGLERMVVLHGYEVVKEALIDLGEEFSGRGHFPLAERANRGFGIVFSNGKRWKEIRRFSLMTLRNFGMGKRSIEDRVQEEARCLVEELRKTKASPCDPTFILGCAPCNVICSIIFQKRFDYKDQQFLNLMEKLNENIRIVSTPWIQICNNFPTIIDYFPGTHNKLLKNLAFMESDILEKVKEHQESMDINNPRDFIDCFLIKMEKEKQNQQSEFTIENLVITAADLLGAGTETTSTTLRYALLLLLKHPEVTAKVQEEIERVIGRNRSPCMQDRGHMPYTDAVVHEVQRYIDLIPTSLPHAVTCDVKFRNYLIPKGTTILTSLTSVLHDNKEFPNPEMFDPRHFLDEGGNFKKSNYFMPFSAGKRICVGEGLARMELFLFLTFILQNFNLKSLIDPKDLDTTPVVNGFASVPPFYQLCFIPV
- Km ([6]; recombinant CYP 2C19): 23 ± 5.2 µM
